Where two headings read alike, the source gives them in different places.
Assays:
[1] = biological target: T1, endothelin receptor (smooth muscle A7r5 cells derived from rat aorta) (Rattus norvegicus, UniProt P26684); assay: Inhibitory effect on the binding of 125I-endothelin-1 to its receptor (rat aorta smooth muscle A7r5 cells); settings: 25 pM 125I-endothelin-1, 37° C., 1 hr, read-out: IC50 binding: 50% inhibition of the specific binding of 125I-endothelin-1 to its receptor
T1 construct: Smooth muscle A7r5 cells derived from rat aorta; endogenous in cells; host or cells: A7r5 (rat aortic smooth muscle)
T1 sequence (P26684 21-426): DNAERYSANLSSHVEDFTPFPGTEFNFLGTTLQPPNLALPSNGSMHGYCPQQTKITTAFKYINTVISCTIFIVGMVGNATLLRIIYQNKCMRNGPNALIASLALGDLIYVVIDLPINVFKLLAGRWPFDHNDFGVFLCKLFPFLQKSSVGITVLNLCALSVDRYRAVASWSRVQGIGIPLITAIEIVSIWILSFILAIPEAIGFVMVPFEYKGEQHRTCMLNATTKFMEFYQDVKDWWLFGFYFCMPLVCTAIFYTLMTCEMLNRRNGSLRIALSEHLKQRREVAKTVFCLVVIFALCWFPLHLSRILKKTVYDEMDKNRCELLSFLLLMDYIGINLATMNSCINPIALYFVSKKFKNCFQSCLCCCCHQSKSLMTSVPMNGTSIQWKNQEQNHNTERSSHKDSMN
Procedure: Inhibitory Effect on the Binding of ^125 I-Endothelin-1 to its Receptor
Smooth muscle A7r5 cells derived from rat aorta were incubated with 25 pM ^125 I-endothelin-1 at 37° C. for 1 hr in the presence or absence of a compound (I) of the present invention. After completion of the reaction, ^125 I-endothelin-1 bound to membrane fraction was separated by filtrating through glass fiber filters and the radioactivity was determined with a gamma-counter. The specific binding was calculated by subtracting the nonspecific binding which was determined in the presence of 10^-7 M non-radioactive endothelin-1 from the total binding.

[2] = test system: endothelin-1-induced increase in cytosolic calcium ion concentration, rat aortic smooth muscle A7r5 cells; assay: Inhibition of the endothelin-1-induced increase in cytosolic calcium ion concentration in A7r5 cells; format: cell-based; settings: fura-2, compound 1 min before 10^-8 M endothelin-1, read-out: IC50 (Ca^2+): inhibition of endothelin-1-induced increase in cytosolic calcium concentration
Procedure: Inhibition of the Endothelin-1-induced Increase in Cytosolic Calcium Ion Concentration
To a cuvette was put a suspension of rat aortic smooth muscle A7r5 cells (Dainippon Pharmaceutical Co., Ltd.) on which 2 μM fura-2 (Dojin) has been loaded. The change in fluorescence intensity was determined with a calcium analyzer (CAF100, Nippon Bunkou Co.). In the determination, the excitation was performed at 340 nm and 380 nm and the recording at 510 nm. The cytosolic calcium concentration was calculated according to the method of Grynkiewicz et al., J. Biol. Chem., 260., pp. 3440-3450, 1985.
The experiment was carried out by adding a compound (I) of the present invention to the cell suspension in cuvette, incubating for 1 min, adding 10^-8 M endothelin-1, and measuring the change in fluorescence intensity.

[3] = biological target: T2, endothelin-1-induced contraction, isolated rat thoracic aorta (Rattus norvegicus, UniProt P26684); assay: Inhibition of endothelin-1-induced contraction in isolated rat thoracic aorta; settings: 10^-8, 3×10^-8, 10^-7 M, 10 min, 37° C.
T2 construct: specimens isolated from rat thoracic aorta; from tissue; host or cells: rat thoracic aorta, transverse strips
T2 sequence (P26684 21-426): T1 sequence (P26684 21-426)
Procedure: Inhibition of Endothelin-1-induced Contradiction in Isolated Rat Thoracic Aorta
Transverse Stip specimens isolated from rat thoracic aorta were suspended in modified Locke-Ringer solution at 37° C. while aerating with mixed gas (95% O2 +5% CO2), and the isometric tension was recorded. Four specimens derived from each rat were used in the test. Thus, three specimens were treated with compound 1c (disodium salt; prepared in Example 1 or 3) of different concentration (10^-8 M, 3×10^-8 M, and 10^-7 M) for 10 min and the rest was untreated before the measurement of isometric tension.

[4] = test system: endothelin-1-induced hypertension, pithed rat; assay: Inhibition of endothelin-1-induced hypertension in pithed rat; format: in vivo; settings: intravenous, dose between 0.01 and 1 mg/kg
Procedure: Inhibition of Endothelin-1-induced Hypertension in Pithed Rat
Under ether anesthesia, a stainless-steal rod (diameter: 2 mm) was inserted from right orbital to spinal end of a rat. The resultant pithed rat was placed under artificial respiration and the change in blood pressure was recorded. Drugs (endothelin-1 and compound 1c prepared in Example 1 or 3) were administered intravenously.

| IC50 [1] [nM] | IC50 ([2]; Rattus norvegicus) [nM] | IC50 [2] [nM] | Kb ([3]; read-out: pA2 value, endothelin-1 concentration-contraction curve (converted)) [nM] | Compound | shift of endothelin-1 concentration-contraction curve [3] | decrease of blood pressure [4] |
| --- | --- | --- | --- | --- | --- | --- |
| 5 | 2.7 |  |  | COC(=O)/C=C/C(=O)Nc1ccc(O)cc1/C=C/C(=O)OC[C@@]12CC[C@@]3(C(=O)O)CCC(C)(C)C[C@H]3C1=CCC1[C@@]3(C)CCC(=O)C(C)(C)C3CC[C@]12C (stereo partly drawn) [Compound 1m] |  |  |
| 0.5 | 2.6 |  |  | CC1(C)CC[C@]2(C(=O)O)CC[C@]3(COC(=O)/C=C/c4cc(O)ccc4NC(=O)/C=C/C(=O)O)C(=CCC4[C@@]5(C)CCC(=O)C(C)(C)C5CC[C@]43C)[C@@H]2C1 (single isomer, unassigned) [Compound 1b] |  |  |
| 3.4 | 3 |  |  | CC1(C)CC[C@]2(C(=O)O)CC[C@]3(COC(=O)/C=C/c4cc(O)ccc4NC(=O)/C=C\C(=O)O)C(=CCC4[C@@]5(C)CCC(=O)C(C)(C)C5CC[C@]43C)[C@@H]2C1 (stereo partly drawn) [Compound 1d] |  |  |
| 0.7 |  | 2.6 | 1.58 | CC1(C)CC[C@]2(C(=O)O)CC[C@]3(COC(=O)/C=C/c4cc(O)ccc4NC(=O)/C=C/C(=O)O)C(=CCC4[C@@]5(C)CCC(=O)C(C)(C)C5CC[C@]43C)[C@@H]2C1 (single isomer, unassigned) [Compound 1c] | shifts the concentration-contradiction curve to right in a concentration-dependent manner | decreased the blood pressure in a dose-dependent manner |

Further lines, the molecule ahead of its results:

| Compound | IC50 [1] [nM] | IC50 ([2]; Rattus norvegicus) [nM] | IC50 [2] [nM] | Kb ([3]; read-out: pA2 value, endothelin-1 concentration-contraction curve (converted)) [nM] | shift of endothelin-1 concentration-contraction curve [3] | decrease of blood pressure [4] |
| --- | --- | --- | --- | --- | --- | --- |
| CC1(C)CC[C@]2(C(=O)O)CC[C@]3(COC(=O)/C=C/c4cc(O)ccc4NCC(=O)O)C(=CCC4[C@@]5(C)CCC(=O)C(C)(C)C5CC[C@]43C)[C@@H]2C1 (stereo partly drawn) [Compound 1n] | 3 | 3 |  |  |  |  |
| CC1(C)CC[C@]2(C(=O)O)CC[C@]3(COC(=O)/C=C/c4ccc(O)c(O)c4)C(=CCC4[C@@]5(C)CCC(=O)C(C)(C)C5CC[C@]43C)[C@@H]2C1 (stereo partly drawn) [Compound 50-235, reference compound] | 76 | 10 |  |  |  |  |
| CC1(C)CC[C@]2(C(=O)O)CC[C@]3(COC(=O)/C=C/c4cc(O)ccc4NC(=O)CCC(=O)O)C(=CCC4[C@@]5(C)CCC(=O)C(C)(C)C5CC[C@]43C)[C@@H]2C1 (stereo partly drawn) [Compound 1e] | 3.6 | 3.5 |  |  |  |  |
| CC1(C)CC[C@]2(C(=O)O)CC[C@]3(COC(=O)/C=C/c4cc(O)ccc4NC(=O)C(=O)O)C(=CCC4[C@@]5(C)CCC(=O)C(C)(C)C5CC[C@]43C)[C@@H]2C1 (stereo partly drawn) [Compound 1g] | 1.8 | 2.5 |  |  |  |  |
| CC1(C)CC[C@]2(C(=O)O)CC[C@]3(COC(=O)/C=C/c4cc(O)ccc4N)C(=CCC4[C@@]5(C)CCC(=O)C(C)(C)C5CC[C@]43C)[C@@H]2C1 (stereo partly drawn) [Compound 1a] | 24 | 4.5 |  |  |  |  |
| CC1(C)CC[C@]2(C(=O)O)CC[C@]3(COC(=O)/C=C/c4cc(O)ccc4NS(=O)(=O)O)C(=CCC4[C@@]5(C)CCC(=O)C(C)(C)C5CC[C@]43C)[C@@H]2C1 (stereo partly drawn) [Compound 1k] | 2.9 | 2.8 |  |  |  |  |
| CC1(C)CC[C@]2(C(=O)O)CC[C@]3(COC(=O)/C=C/c4cc(O)ccc4NC(=O)CC(=O)O)C(=CCC4[C@@]5(C)CCC(=O)C(C)(C)C5CC[C@]43C)[C@@H]2C1 (stereo partly drawn) [Compound 1h] | 9 | 5.6 |  |  |  |  |
| CC1(C)CC[C@]2(C(=O)O)CC[C@]3(COC(=O)/C=C/c4cc(O)ccc4NC(=O)CCCC(=O)O)C(=CCC4[C@@]5(C)CCC(=O)C(C)(C)C5CC[C@]43C)[C@@H]2C1 (stereo partly drawn) [Compound 1i] | 6.6 | 4.6 |  |  |  |  |
